Test results as given in US20040052734A1, “Process for providing a stable crystalline form of salbutamol” (Boehringer Ingelheim Pharma GmbH & Co. KG, priority 2002, published 2004).
Several values for one entry are separate records, joined by “and”; a condition that tells them apart may be missing. Equal values may be shown once.

Experiments:
Type in all cases: physicochemical
[1] = Particle size analysis by powder laser diffraction (HELIOS, RODOS dry powder feeder)
Experimental: Micronised powders were prepared with a MC Jetmill 50 (Jetpharma, Balerna, Switzerland). The micronised powder underwent different conditioning settings in a climate chamber ([…] GmbH, […], Germany). The temperature was set at 25° C. and 40° C. and the relative humidity was varied in a field between 45% and 75%, respectively. For “dry” conditioning settings the powders were prepared at a temperature of 70° C. in a thermal oven (Heraeus, Hanau, Germany). […] Samples were introduced through the RODOS dry powder feeder. The supply pressure of the injector was at 3 bar.

[2] = Isothermal microcalorimetry (amorphous content / recrystallisation); conditions: for amorphous amount: micronised, stored in opened TWO-Glass at room temperature (21.5° C., 42% RH)
Experimental: The micronised powder underwent different conditioning settings in a climate chamber (Weiβ Klimatechnik GmbH, Reiskirchen-Lindstruth, Germany). The temperature was set at 25° C. and 40° C. and the relative humidity was varied in a field between 45% and 75%, respectively.
For “dry” conditioning settings the powders were prepared at a temperature of 70° C. in a thermal oven (Heraeus, Hanau, Germany).
The powder was investigated using a Thermal Activity Monitor (Type 2277, Thermometric, Sweden) at 25° C. The samples were weighted into a glass ampoule and a tube was added containing a saturated salt solution. The ampoule was sealed and equilibrated in the calorimeter for 5 min before lowering it into the measuring site.

[3] = Powder X-ray diffraction at different temperatures under vacuum; conditions: amorphous (produced by freeze-drying)
Experimental: The Powder X-Ray Diffraction (Bruker, Rheinstetten, Germany) patterns were acquired at different temperatures using Cu-K α radiation (λ=1.5406 Å). The data were collected over an angular range of 2-40°2θ using a step size of 0,014°2θ and a step time of 2 sec.

[4] = Recording of humidity (sorption behaviour of micronised, wrapped powder); conditions: unconditioned, stored at 55% RH
Experimental: Using a humidity sensor (Ebro, Ingolstadt, Germany) the sorption behaviour of the micronised and wrapped powder was measured. With the help of a humidity sensor it is possible to observe the sorption behaviour of the micronised, in a PE-bag wrapped, powder. Approx. 30 g of the freshly grinded substance are wrapped in a PE-bag together with a humidity sensor and afterwards closed.

[5] = Table 1 batch, micronised powder, before conditioning
[6] = Table 2 batch, micronised powder, before conditioning
[7] = micronised powder conditioned 5 hours by 70° C. (dry)

effect of additional conditioning duration on particle size ([1]; 40° C. and 75% RH beyond five hours, storage under same conditions for two weeks): no effect on the particle size
Particle size 10% < [1, 5]: 0.83 μm
Particle size 50% < [1, 5]: 1.94 μm
Particle size 90% < [1, 5]: 4.53 μm
Particle size 10% < [1, 6]: 0.70 μm
Particle size 50% < [1, 6]: 1.30 μm and 1.53 μm
Particle size 90% < [1, 6]: 3.42 μm
Particle size 10% < ([1]; conditioned 24 h 55% RH 25° C.): 0.78 μm
Particle size 50% < ([1]; conditioned 24 h 55% RH 25° C.): 1.66 μm
Particle size 90% < ([1]; conditioned 24 h 55% RH 25° C.): 3.56 μm
Particle size 10% < ([1]; conditioned 24 h 55% RH 40° C.): 0.79 μm
Particle size 50% < ([1]; conditioned 24 h 55% RH 40° C.): 1.68 μm
Particle size 90% < ([1]; conditioned 24 h 55% RH 40° C.): 3.59 μm
Particle size 10% < ([1]; conditioned 24 h 65% RH 25° C.): 0.82 μm
Particle size 50% < ([1]; conditioned 24 h 65% RH 25° C.): 1.76 μm
Particle size 90% < ([1]; conditioned 24 h 65% RH 25° C.): 3.67 μm
Particle size 10% < ([1]; conditioned 24 h 65% RH 40° C.): 0.80 μm
Particle size 50% < ([1]; conditioned 24 h 65% RH 40° C.): 1.72 μm
Particle size 90% < ([1]; conditioned 24 h 65% RH 40° C.): 3.64 μm
Particle size 10% < ([1]; conditioned 24 h 75% RH 25° C.): 0.83 μm
Particle size 50% < ([1]; conditioned 24 h 75% RH 25° C.): 1.77 μm
Particle size 90% < ([1]; conditioned 24 h 75% RH 25° C.): 3.69 μm
Particle size 10% < ([1]; conditioned 24 h 75% RH 40° C.): 0.84 μm
Particle size 50% < ([1]; conditioned 24 h 75% RH 40° C.): 1.78 μm
Particle size 90% < ([1]; conditioned 24 h 75% RH 40° C.): 3.69 μm
uncontrolled particle growth in terms of particle diameters ([1]; dry conditioning, then four weeks of storage): up to 16%
Particle size 10% < [1, 7]: 0.82 μm
Particle size 50% < [1, 7]: 1.90 μm
Particle size 90% < [1, 7]: 4.45 μm
particle size on storage without conditioning ([1]; wrapped, stored 21-23° C., approx. 45% RH, up to three months): shows likewise particle growth
recrystallisation after dry conditioning ([2]; 70° C. for 5 hours): does not lead to recrystallisation
reduction of the amorphous fraction ([2]; conditioning at 25° C. and 45% RH for 24 hours): 2.5%
crystallinity after conditioning ([2]; five hours of conditioning at 40° C. and 75% RH, partially amorphous powder): complete crystalline material
amorphous content ([2]; initial sample (micronised, before conditioning)): 7.7%
amorphous amount ([2]; after 1st week): 6.5%
amorphous amount ([2]; after 2nd week): 5.4%
amorphous amount ([2]; after 4th week): 4.5%
amorphous content ([2]; unconditioned powder, wrapped, stored four weeks at 21-23° C., approx. 45% RH): < 0.5%
SMILES: CC(C)(C)NC[C@H](O)c1ccc(O)c(CO)c1 (racemic) [salbutamol sulphate]
recrystallisation of amorphous material [3]: does not recrystallize under exclusion of humidity
recrystallisation on storage [4]: completely recrystallized within one week
